Results taken from patent US12410211B2, “V1A receptor partial agonist and method of use” (PharmaIN Corporation, priority 2020, dated 2025).
Read-outs that look alike come from different tables or passages of the source. Marks after values point to notes of the source that are not given here. Where a SMILES comes first, the peptide text is derived from it. Bridges are numbered along the chain shown (N, C = ends). [ ]: non-standard residue; d: D form. Aad = N[C@@H](CCCC(=O)O)C(=O)O; Dap = NC[C@H](N)C(=O)O; Mpa = O=C(O)CCS

Assays:
[1] = Therapeutic index (NOAEL/NOEL): paleness, lethargy, ataxia observation in Sprague-Dawley rats (Example 7); type: in vivo; conditions: for Paleness (Duration, hrs; SD) / Highest dose with no-observed effect level or paleness (NOEL) / NOAEL/NOEL (therapeutic index) / NOAEL at 24 h / NOAEL: S.C.; for NOAEL at 24 h: male, Sprague-Dawley; for NOAEL at 24 h / NOAEL: read-out: Highest dose with no-observed adverse effect level without lethargy (NOAEL)
From the text: As used herein, the term “therapeutic index” (TI; also referred to as therapeutic ratio) is a quantitative measure of the relative safety of a drug. […] For the purpose of the present application, lethargy is a lack of energy and/or sleepiness which is visually observed in rats as a lack of mobility, such as a lack of mobility even in the presence of human activity. For the purpose of present specification, peripheral vasoconstriction is visually observed by a paleness of the extremities (e.g., skin of hands, feet, ears, and lips). In rats, peripheral vasoconstriction is determined by a side-by-side comparison of ear paleness in treated subjects (e.g., Sprague Dawley rats, a white rat with easily visualizable changes in redness/paleness) vs. untreated control subjects. The V1a agonist (or partial agonist) with a high therapeutic index will have a better safety profile than that with a low therapeutic index by providing a wider margin of safety for dosing during the treatment of the disease. This NOAEL/NOEL ratio, being a quantitative measure of the relative safety, is a comparison of the amount of a therapeutic agent that causes the therapeutic effect (useful effect, vasoconstriction for the purpose of the present specification) to the amount that causes toxicity. A V1a agonist that causes severe vasoconstriction will affect not only the peripheral vessels, with several layer of smooth muscles, but also other vessels present in other organs (e.g., heart, lungs, kidney, brain) and this will result in observed lethargy and eventually ataxia. A partial agonist is less likely to reach such an extreme level of vasoconstriction and is believed to have a higher therapeutic index.
In this study, 8 to 10 weeks male Sprague-Dawley rats (Charles River; Wilmington, MA) under isoflurane anesthesia (n=3 or 6) were intravenously (IV) or subcutaneously (SC) injected or administered with various test articles. Prior to administration of test articles, the injection area was clipped free of fur, to allow for clear visualization of the dose site, and animal weight was measured and recorded. Animals were housed two per cage. […] Lethargy is when the animal eyes cannot fully open and is associated deep breathing and limited of movement even in the presence of human.

[2] = target: T1, V1a receptor (Homo sapiens, UniProt P37288); test: V1a Human Vasopressin GPCR Cell Based Agonist Calcium Flux Assay; conditions: for Emax: read-out: V1a Highest agonist effect (% of AVP)
T1 construct: host or cells: CHO cells
T1 sequence (P37288 whole entry): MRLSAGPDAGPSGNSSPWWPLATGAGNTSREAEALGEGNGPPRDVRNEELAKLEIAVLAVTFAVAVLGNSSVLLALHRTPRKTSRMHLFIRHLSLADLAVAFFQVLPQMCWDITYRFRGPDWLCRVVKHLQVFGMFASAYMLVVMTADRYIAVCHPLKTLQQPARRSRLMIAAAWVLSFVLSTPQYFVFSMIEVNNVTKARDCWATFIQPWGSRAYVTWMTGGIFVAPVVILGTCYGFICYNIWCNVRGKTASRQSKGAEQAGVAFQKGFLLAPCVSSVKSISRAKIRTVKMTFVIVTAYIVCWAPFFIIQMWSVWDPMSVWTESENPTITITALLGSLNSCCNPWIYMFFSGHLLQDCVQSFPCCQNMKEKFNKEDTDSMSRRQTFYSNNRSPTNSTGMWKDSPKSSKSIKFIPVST
Description: Peptides of Formula (I) include Mpa-Tyr-Phe-Hgn-Asn-Cys-Pro-Lys(X)a-Gly-NH2 [SEQ ID NO. 24]; where (X)a is a peptide with “a” residues and each residue X is independently selected from Gly, and a D- or L-amino acid version of Ala, Lys, Orn, Glu, and Asp, where “a” is 0-10. V1a Human Vasopressin GPCR Cell Based Agonist Calcium Flux Assay were conducted at Eurofins Cerep SA (France) on a fee for service basis. Human recombinant CHO cells expressing human V1 receptors were distributed in microplates. Intracellular calcium signal was detected by fluorimetry, and the signal was acquired before and after addition of a known agonist concentration. The following agonist concentrations were tested (nM); 0.0128, 0.064, 0.32, 1.6, 8, 40, 200, and 1,000. […] All assays were performed in duplicate. Changes in fluorescence intensity reflected changes in the concentration of free cytosolic calcium. […] The half-maximal effective concentration (EC50) was determined by a non-linear regression analysis of the concentration-response curves generated with mean replicate values using Hill equation curve fitting (Cerep, I'Evescault, France).
V1a Human Vasopressin GPCR Cell Based Agonist Calcium Flux Assay were conducted using human recombinant CHO cells expressing human V1 receptor. Briefly, human recombinant CHO cells expressing human V1 receptor were distributed in microplates at 4.5×10^4 cells/well. The fluorescent probe (Fluo4 Direct, Invitrogen) mixed with probenicid in HBSS buffer (Invitrogen) complemented with 20 mM HEPES (Invitrogen) (pH 7.4) is then added into each well and equilibrated with the cells for 60 min at 37° C. then 15 min at 22° C. Thereafter, the assay plates are positioned in a microplate reader (CellLux, PerkinElmer) which is used for the addition of the test compound, reference agonist or HBSS buffer (basal control), and the measurements of changes in fluorescence intensity which varies proportionally to the free cytosolic Ca^2+ ion concentration. The following agonist concentrations were tested (nM), 0.0128, 0.064, 0.32, 1.6, 8, 40, 200, and 1,000. […] All assays were performed in duplicate. Changes in fluorescence intensity reflected changes in the concentration of free cytosolic calcium. […] Referring to FIG. 3 and Table 4, the half-maximal effective concentration (EC50) was determined by non-linear regression analysis of the concentration-response curves generated with mean replicate values using Hill equation curve fitting (Cerep, I'Evescault, France).

[3] = at the Marked adverse effect dose
[4] = at the Mild adverse effect dose
[5] = Table 3, cells printed in μM, read-out: Estimated V1a EC50, n = 2
[6] = FIG. 2 / FIG. 3 legend, n=2, read-out: EC50 for V1a receptor

| SMILES | Paleness (Duration, hrs; SD) [1, 3] | Paleness (Duration, hrs; SD) [1, 4] | Paleness (Duration, hrs; SD) ([1]; at the NOAEL dose) | Paleness (Duration, hrs; SD) ([1]; at the NOEL dose) | Highest dose with no-observed effect level or paleness (NOEL) ([1]; rat) | NOAEL/NOEL (therapeutic index) ([1]; rat) | NOAEL at 24 h ([1]; in vivo, sc, rat) | Marked adverse effect (Lowest dose first showed Ataxia) ([1]; rat, in vivo, sc) | Mild adverse effect (Lowest dose first showed Lethargy) ([1]; rat, in vivo, sc) | EC50 ([2]; Table 3, CHO cells expressing human V1 receptor, read-out: Estimated V1a EC50 (nM), n = 2) | Emax ([2]; Table 3, n = 2) | NOAEL ([1]; in vivo, sc, rat) | Ataxia (duration, hrs; SD) ([1]; rat, in vivo, sc) | EC50 [2, 5] | EC50 [2, 6] | Emax ([2]; Table 4, n = 2) |
| --- | --- | --- | --- | --- | --- | --- | --- | --- | --- | --- | --- | --- | --- | --- | --- | --- |
| NCC(=O)NCC(=O)NCC(=O)NCC(=O)NCC(=O)NCCCC[C@H](NC(=O)[C@@H]1CCCN1C(=O)[C@@H]1CSSCCC(=O)N[C@@H](Cc2ccc(O)cc2)C(=O)N[C@@H](Cc2ccccc2)C(=O)N[C@@H](CCCC(N)=O)C(=O)N[C@@H](CC(N)=O)C(=O)N1)C(=O)NCC(N)=O [SEQ ID NO. 12, Mpa-Tyr-Phe-Hgn-Asn-Cys-Pro-Lys(X)a-Gly-NH2; (X)a = (Gly)5] | (>6.69)* hrs | (>6.65)* hrs | (5.79 ± 0.08) hrs | None Observed | 0.0015 mg/kg | 100 | 0.15 mg/kg | 1.5 mg/kg | 0.5 mg/kg | 50.1 nM | 29.6% |  |  |  |  |  |
| NC[C@H](NC(=O)[C@@H]1CCCN1C(=O)[C@@H]1CSSCCC(=O)N[C@@H](Cc2ccc(O)cc2)C(=O)N[C@@H](Cc2ccccc2)C(=O)N[C@@H](CCCC(N)=O)C(=O)N[C@@H](CC(N)=O)C(=O)N1)C(=O)NCC(N)=O [SEQ ID NO. 17, Mpa-Tyr-Phe-Hgn-Asn-Cys-Pro-Dap-Gly-NH2] ([Mpa]YF[Aad](NH2)NCP[Dap]G-NH2; disulfide 1-6) | (>6.18)* hrs | (>5.92)* hrs | (6.11 ± 0.07) hrs | None observed | 0.014 mg/kg | 34 |  | >9.95 mg/kg | 4.78 mg/kg |  | 3.5% | 0.478 mg/kg | None observed | > 10000 nM |  |  |
| NCC(=O)NCC(=O)NCC(=O)NCCCC[C@H](NC(=O)[C@@H]1CCCN1C(=O)[C@@H]1CSSCCC(=O)N[C@@H](Cc2ccc(O)cc2)C(=O)N[C@@H](Cc2ccccc2)C(=O)N[C@@H](CCCC(N)=O)C(=O)N[C@@H](CC(N)=O)C(=O)N1)C(=O)NCC(N)=O [SEQ ID NO. 10, Mpa-Tyr-Phe-Hgn-Asn-Cys-Pro-Lys(X)a-Gly-NH2; (X)a = (Gly)3] | (6.4 ± 0.07) hrs | (6.27 ± 0.13) hrs | (5.65 ± 0.4) hrs | None observed | 0.0015 mg/kg | 100 | 0.15 mg/kg | 1.5 mg/kg | 0.5 mg/kg |  | 32.9% |  |  |  | 53.5 nM |  |
| NCCCC[C@@H](NC(=O)[C@@H]1CCCN1C(=O)[C@@H]1CSSCCC(=O)N[C@@H](Cc2ccc(O)cc2)C(=O)N[C@@H](Cc2ccccc2)C(=O)N[C@@H](CCCC(N)=O)C(=O)N[C@@H](CC(N)=O)C(=O)N1)C(=O)NCC(N)=O [SEQ ID NO. 18, Mpa-Tyr-Phe-Hgn-Asn-Cys-Pro-dLys-Gly-NH2] |  |  |  |  | 0.005 mg/kg | 30 |  | 1.5 mg/kg | 0.5 mg/kg |  | 0.2% | 0.15 mg/kg |  | > 10000 nM |  |  |
| NCC(=O)NCC(=O)NCC(=O)NCC(=O)NCC(=O)NCC(=O)NCCCC[C@H](NC(=O)[C@@H]1CCCN1C(=O)[C@@H]1CSSCCC(=O)N[C@@H](Cc2ccc(O)cc2)C(=O)N[C@@H](Cc2ccccc2)C(=O)N[C@@H](CCC(N)=O)C(=O)N[C@@H](CC(N)=O)C(=O)N1)C(=O)NCC(N)=O [SEQ ID NO. 20, Mpa-Tyr-Phe-Gln-Asn-Cys-Pro-Lys(X)a-Gly-NH2; (X)a = (Gly)6] | (>6.76)* hrs | (>5.46)* hrs | (6.11 ± 0.09) hrs | None observed | 0.0015 mg/kg | 100 | 0.15 mg/kg | 5.0 mg/kg | 0.5 mg/kg |  |  |  |  |  | 27.3 nM | 60.9% |
| NCC(=O)NCC(=O)NCC(=O)NCC(=O)NCC(=O)NCC(=O)NCC(=O)NCC(=O)NCC(=O)NCCCC[C@H](NC(=O)[C@@H]1CCCN1C(=O)[C@@H]1CSSCCC(=O)N[C@@H](Cc2ccc(O)cc2)C(=O)N[C@@H](Cc2ccccc2)C(=O)N[C@@H](CCCC(N)=O)C(=O)N[C@@H](CC(N)=O)C(=O)N1)C(=O)NCC(N)=O [SEQ ID NO. 16, Mpa-Tyr-Phe-Hgn-Asn-Cys-Pro-Lys(X)a-Gly-NH2; (X)a = (Gly)9] | (>6.99)* hrs | (>6.14)* hrs | (7.14 ± 0.11) hrs | None observed | 0.005 mg/kg | 100 | 0.5 mg/kg | 5.0 mg/kg | 1.5 mg/kg |  | 28.1% |  |  |  | 105 nM |  |
